Measured values published in patent US7718700B2, “Growth factor-binding compounds and methods of use” (Yale University, priority 2004, dated 2010).
Where “and” joins values, the source holds several entries; their conditions need not be identical. Equal values may be shown once. Read-outs that look alike come from different tables or passages of the source.

Legend:
[1] = system: VEGFR (Flk-1/KDR); test: VEGF-stimulated Flk-1 tyrosine phosphorylation in Flk-1/NIH 3T3 cells; type: cell-based, human
Description: (§1) Inhibition of growth factor-dependent receptor tyrosine phosphorylation by GFBs. Starved Flk-1/KDR-overexpressing NIH 3T3 cells (Flk-1/NIH 3T3) or NIH 3T3 cells were pretreated with GFBs for 5 min before stimulation with VEGF (50 ng/ml) or PDGF-BB (10 ng/ml) for 10 min, respectively. The cells were then harvested and lysed, and proteins from the lysates were separated by SDS-PAGE and transferred to nitrocellulose. Membranes then were either immunoblotted with anti-phospho-VEGFR2 antibody (Cell Signaling Technologies, Beverly, Mass.) for activated Flk-1 or anti-phospho-tyrosine antibody (4G10, Upstate Biotechnology, Lake Placid, N.Y.) for activated PDGFR. Phosphotyrosine Flk-1 and PDGFR were quantified using a Bio-Rad Model GS-700 Imaging Densitometer (Bio-Rad Laboratories, Inc, Hercules, Calif.) (Blaskovich, M. A. et al. Nat Biotechnol, 2000, 18:1065-70).

[2] = system: PDGFR; test: PDGF-stimulated PDGFR tyrosine phosphorylation in NIH 3T3 cells; type: cell-based, mouse
Description: as §1

[3] = system: pancreatic tumors; conditions: Bergers et al. 2003; cited from earlier work
[4] = system: metastatic colorectal cancer; conditions: patients with metastatic colorectal cancer; cited from earlier work
[5] = read-out: IC50 (μM) VEGFR, VEGF 50 ng/ml stimulated Flk-1 tyrosine phosphorylation
[6] = read-out: IC50 (μM) PDGFR; PDGF-BB 10 ng/ml stimulated receptor tyrosine phosphorylation, NIH 3T3 cells
[7] = VEGF 50 ng/ml stimulated Flk-1 tyrosine phosphorylation, read-out: IC50 (μM) VEGFR
[8] = PDGF-BB 10 ng/ml stimulated receptor tyrosine phosphorylation, NIH 3T3 cells; read-out: IC50 (μM) PDGFR

| Compound | IC50 [1, 7] [µM] | IC50 [2, 8] | further results |
| --- | --- | --- | --- |
| CCCCOc1c2cc(C(=O)Nc3cc(C(=O)OCc4ccccc4)cc(C(=O)OC(C)(C)C)c3)cc1Cc1cc(C(=O)Nc3cc(C(=O)OCc4ccccc4)cc(C(=O)OC(C)(C)C)c3)cc(c1OCCCC)Cc1cc(C(=O)Nc3cc(C(=O)OCc4ccccc4)cc(C(=O)OC(C)(C)C)c3)cc(c1OCCCC)Cc1cc(C(=O)Nc3cc(C(=O)OCc4ccccc4)cc(C(=O)OC(C)(C)C)c3)cc(c1OCCCC)C2 [GFB217] | – | – | IC50 [1, 5]: > 10 µM; inhibition of PDGF signaling, in words [2]: did not have a significant activity; IC50 [2, 6]: > 10 µM |
| CCCCOc1c2cc(C(=O)Nc3cc(C(=O)O)cc(C(=O)NC(C)C)c3)cc1Cc1cc(C(=O)Nc3cc(C(=O)O)cc(C(=O)NC(C)C)c3)cc(c1OCCCC)Cc1cc(C(=O)Nc3cc(C(=O)O)cc(C(=O)NC(C)C)c3)cc(c1OCCCC)Cc1cc(C(=O)Nc3cc(C(=O)O)cc(C(=O)NC(C)C)c3)cc(c1OCCCC)C2 [GFB214] | > 10 | 0.17 ± 0.02 µM | – |
| CCCCOc1c2cc(C(=O)Nc3cc(C(=O)NC(CC(=O)O)C(=O)O)cc(C(=O)NC(Cc4ccc(O)cc4)C(=O)O)c3)cc1Cc1cc(C(=O)Nc3cc(C(=O)NC(CC(=O)O)C(=O)O)cc(C(=O)NC(Cc4ccc(O)cc4)C(=O)O)c3)cc(c1OCCCC)Cc1cc(C(=O)Nc3cc(C(=O)NC(CC(=O)O)C(=O)O)cc(C(=O)NC(Cc4ccc(O)cc4)C(=O)O)c3)cc(c1OCCCC)Cc1cc(C(=O)Nc3cc(C(=O)NC(CC(=O)O)C(=O)O)cc(C(=O)NC(Cc4ccc(O)cc4)C(=O)O)c3)cc(c1OCCCC)C2 (stereo not shown) [GFB205] | – | – | IC50 [1, 5]: 5.86 ± 0.68 µM |
| CCCCOc1c2cc(C(=O)Nc3cc(C(=O)NCCC(=O)O)cc(C(=O)N[C@@H](Cc4ccc(OCC(=O)O)cc4)C(=O)O)c3)cc1Cc1cc(C(=O)Nc3cc(C(=O)NCCC(=O)O)cc(C(=O)N[C@@H](Cc4ccc(OCC(=O)O)cc4)C(=O)O)c3)cc(c1OCCCC)Cc1cc(C(=O)Nc3cc(C(=O)NCCC(=O)O)cc(C(=O)N[C@@H](Cc4ccc(OCC(=O)O)cc4)C(=O)O)c3)cc(c1OCCCC)Cc1cc(C(=O)Nc3cc(C(=O)NCCC(=O)O)cc(C(=O)N[C@@H](Cc4ccc(OCC(=O)O)cc4)C(=O)O)c3)cc(c1OCCCC)C2 [GFB208] | – | 0.84 ± 0.06 µM | – |
| CCCCOc1c2cc(C(=O)Nc3cc(C(=O)O)cc(C(=O)NCc4ccccc4)c3)cc1Cc1cc(C(=O)Nc3cc(C(=O)O)cc(C(=O)NCc4ccccc4)c3)cc(c1OCCCC)Cc1cc(C(=O)Nc3cc(C(=O)O)cc(C(=O)NCc4ccccc4)c3)cc(c1OCCCC)Cc1cc(C(=O)Nc3cc(C(=O)O)cc(C(=O)NCc4ccccc4)c3)cc(c1OCCCC)C2 [GFB211] | – | – | IC50 [1, 5]: 13 ± 0.49 µM; IC50 [2, 6]: 1.34 ± 0.32 µM |
| CCCCOc1c2cc(C(=O)Nc3cc(C(=O)O)cc(C(=O)NCCC)c3)cc1Cc1cc(C(=O)Nc3cc(C(=O)O)cc(C(=O)NCCC)c3)cc(c1OCCCC)Cc1cc(C(=O)Nc3cc(C(=O)O)cc(C(=O)NCCC)c3)cc(c1OCCCC)Cc1cc(C(=O)Nc3cc(C(=O)O)cc(C(=O)NCCC)c3)cc(c1OCCCC)C2 [GFB215] | > 10 | 0.21 ± 0.13 µM | – |
| Cc1cc(C)c(/C=C2\C(=O)Nc3ccccc32)[nH]1 [SU5416] | – | – | effect on pancreatic tumors [3]: suppresses early, but not late, development of pancreatic tumors |
| CCCCOc1c2cc(C(=O)Nc3cc(C(=O)O)cc(C(=O)OC(C)(C)C)c3)cc1Cc1cc(C(=O)Nc3cc(C(=O)O)cc(C(=O)OC(C)(C)C)c3)cc(c1OCCCC)Cc1cc(C(=O)Nc3cc(C(=O)O)cc(C(=O)OC(C)(C)C)c3)cc(c1OCCCC)Cc1cc(C(=O)Nc3cc(C(=O)O)cc(C(=O)OC(C)(C)C)c3)cc(c1OCCCC)C2 [GFB210] | – | – | IC50 [1, 5]: 4.54 ± 0.55 µM; IC50 [2, 6]: 0.35 ± 0.31 µM |
| CCCCOc1c2cc(C(=O)Nc3cc(C(=O)O)cc(C(=O)Nc4ccncc4)c3)cc1Cc1cc(C(=O)Nc3cc(C(=O)O)cc(C(=O)Nc4ccncc4)c3)cc(c1OCCCC)Cc1cc(C(=O)Nc3cc(C(=O)O)cc(C(=O)Nc4ccncc4)c3)cc(c1OCCCC)Cc1cc(C(=O)Nc3cc(C(=O)O)cc(C(=O)Nc4ccncc4)c3)cc(c1OCCCC)C2 [GFB218] | > 10 | 0.54 ± 0.15 µM | – |
| CCCCOc1c2cc(C(=O)Nc3cc(C(=O)O)cc(C(=O)O)c3)cc1Cc1cc(C(=O)Nc3cc(C(=O)O)cc(C(=O)O)c3)cc(c1OCCCC)Cc1cc(C(=O)Nc3cc(C(=O)O)cc(C(=O)O)c3)cc(c1OCCCC)Cc1cc(C(=O)Nc3cc(C(=O)O)cc(C(=O)O)c3)cc(c1OCCCC)C2 [GFB201] | 4.96 ± 0.34 | 2.62 ± 0.5 µM | – |
| CCCCOc1c2cc(C(=O)Nc3cc(C(=O)O)cc(C(=O)Nc4cccc5ccccc45)c3)cc1Cc1cc(C(=O)Nc3cc(C(=O)O)cc(C(=O)Nc4cccc5ccccc45)c3)cc(c1OCCCC)Cc1cc(C(=O)Nc3cc(C(=O)O)cc(C(=O)Nc4cccc5ccccc45)c3)cc(c1OCCCC)Cc1cc(C(=O)Nc3cc(C(=O)O)cc(C(=O)Nc4cccc5ccccc45)c3)cc(c1OCCCC)C2 [GFB219] | > 10 | 0.53 ± 0.15 µM | – |
| Cc1[nH]c(/C=C2\C(=O)Nc3ccccc32)c(C)c1CCC(=O)O [SU6668] | – | – | effect on pancreatic tumors [3]: induced regression of advanced pancreatic tumor at late stage of development |
| C=CCNC(=O)c1cc(NC(=O)c2cc3c(OCCCC)c(c2)Cc2cc(C(=O)Nc4cc(C(=O)O)cc(C(=O)NCC=C)c4)cc(c2OCCCC)Cc2cc(C(=O)Nc4cc(C(=O)O)cc(C(=O)NCC=C)c4)cc(c2OCCCC)Cc2cc(C(=O)Nc4cc(C(=O)O)cc(C(=O)NCC=C)c4)cc(c2OCCCC)C3)cc(C(=O)O)c1 [GFB216] | > 10 | 0.15 ± 0.01 µM | – |
| CCCCOc1c2cc(C(=O)Nc3cc(C(=O)O)cc(C(=O)NC(C)(C)C)c3)cc1Cc1cc(C(=O)Nc3cc(C(=O)O)cc(C(=O)NC(C)(C)C)c3)cc(c1OCCCC)Cc1cc(C(=O)Nc3cc(C(=O)O)cc(C(=O)NC(C)(C)C)c3)cc(c1OCCCC)Cc1cc(C(=O)Nc3cc(C(=O)O)cc(C(=O)NC(C)(C)C)c3)cc(c1OCCCC)C2 [GFB213] | 0.85 ± 0.44 | 0.57 ± 0.06 µM | – |
| CCCCOc1c2cc(C(=O)Nc3cc(C(=O)NCCC(=O)O)cc(C(=O)NCCC(=O)O)c3)cc1Cc1cc(C(=O)Nc3cc(C(=O)NCCC(=O)O)cc(C(=O)NCCC(=O)O)c3)cc(c1OCCCC)Cc1cc(C(=O)Nc3cc(C(=O)NCCC(=O)O)cc(C(=O)NCCC(=O)O)c3)cc(c1OCCCC)Cc1cc(C(=O)Nc3cc(C(=O)NCCC(=O)O)cc(C(=O)NCCC(=O)O)c3)cc(c1OCCCC)C2 [GFB203] | 19.8 ± 2.9 | – | – |
| AVASTIN: humanized anti-VEGF monoclonal antibody | – | – | increase of median survival [4]: 5 months |
| CCCCOc1c2cc(C(=O)Nc3cc(C(=O)NC(CC(=O)O)C(=O)O)cc(C(=O)NC(CC(=O)O)C(=O)O)c3)cc1Cc1cc(C(=O)Nc3cc(C(=O)NC(CC(=O)O)C(=O)O)cc(C(=O)NC(CC(=O)O)C(=O)O)c3)cc(c1OCCCC)Cc1cc(C(=O)Nc3cc(C(=O)NC(CC(=O)O)C(=O)O)cc(C(=O)NC(CC(=O)O)C(=O)O)c3)cc(c1OCCCC)Cc1cc(C(=O)Nc3cc(C(=O)NC(CC(=O)O)C(=O)O)cc(C(=O)NC(CC(=O)O)C(=O)O)c3)cc(c1OCCCC)C2 (stereo not shown) [GFB202] | – | – | IC50 [1, 5]: 11.3 ± 2.9 µM; IC50 [2, 6]: 1.39 ± 0.38 µM |
| CCCCOc1c2cc(C(=O)Nc3cc(C(=O)NCCC(=O)O)cc(C(=O)N[C@@H](Cc4ccc(O)cc4)C(=O)O)c3)cc1Cc1cc(C(=O)Nc3cc(C(=O)NCCC(=O)O)cc(C(=O)N[C@@H](Cc4ccc(O)cc4)C(=O)O)c3)cc(c1OCCCC)Cc1cc(C(=O)Nc3cc(C(=O)NCCC(=O)O)cc(C(=O)N[C@@H](Cc4ccc(O)cc4)C(=O)O)c3)cc(c1OCCCC)Cc1cc(C(=O)Nc3cc(C(=O)NCCC(=O)O)cc(C(=O)N[C@@H](Cc4ccc(O)cc4)C(=O)O)c3)cc(c1OCCCC)C2 [GFB207] | 18.4 ± 2.72 | – | – |
| CCCCOc1c2cc(C(=O)Nc3cc(C(=O)O)cc(C(=O)OC)c3)cc1Cc1cc(C(=O)Nc3cc(C(=O)O)cc(C(=O)OC)c3)cc(c1OCCCC)Cc1cc(C(=O)Nc3cc(C(=O)O)cc(C(=O)OC)c3)cc(c1OCCCC)Cc1cc(C(=O)Nc3cc(C(=O)O)cc(C(=O)OC)c3)cc(c1OCCCC)C2 [GFB209] | 5.58 ± 4.11 | 2.9 µM and 2.91 µM | – |
| CCCCOc1c2cc(C(=O)Nc3cc(C(=O)O)cc(C(=O)NC4CCCCC4)c3)cc1Cc1cc(C(=O)Nc3cc(C(=O)O)cc(C(=O)NC4CCCCC4)c3)cc(c1OCCCC)Cc1cc(C(=O)Nc3cc(C(=O)O)cc(C(=O)NC4CCCCC4)c3)cc(c1OCCCC)Cc1cc(C(=O)Nc3cc(C(=O)O)cc(C(=O)NC4CCCCC4)c3)cc(c1OCCCC)C2 [GFB212] | > 10 | 0.29 ± 0.08 µM | – |
